Assay results reported in PubChem BioAssay AID743184 (Broad Institute, 2013).
Activity calls are given as the source filed them. No rule for the calls is given here.

Experiment: M. tuberculosis BioA enzyme inhibitors, biochemical, single concentration, dry powder (AID 743184)
Settings: at 9.99 µM; active compounds read high
For O=C(Nc1cccnc1)c1cnn2c(C(F)(F)F)cc(-c3ccccc3)nc12, the activity score was 11.8% (inactive). In the case of COc1cccc(NC(=O)CCC2CCN(C(=O)c3ccc(C(C)=O)s3)CC2)c1, the activity score is reported as 1.4% (inactive). With CC(=O)c1ccc(N2CCN(C(=O)c3ccc(F)cc3)CC2)cc1 the activity score was -3.75% (inactive). For O=C(O)CC/C(=C\c1ccc([N+](=O)[O-])cc1)c1nc2ccccc2s1, the activity score was 1.57% (inactive). In the case of CCc1ccc(C(=O)N2CCN(Cc3ccc4c(c3)OCO4)CC2)cc1, the activity score is reported as 0.311% (inactive). With O=C(c1ccc2c(c1)OCO2)N1CCN(c2ccc(Cl)cc2)CC1 the activity score was -0.291% (inactive). For O=C(c1ccc2c(c1)OCO2)N1CCN(c2ccccc2)CC1, the activity score was 0.078% (inactive). For CC(=O)c1ccc(N2CCN(C(=O)c3ccccc3)CC2)cc1, the activity score was -3.73% (inactive). In the case of O=C(Nc1cccc(F)c1)N1CCN(c2ccccc2)CC1, the activity score is reported as -3.46% (inactive). With Cc1ccc(/C=C(\CCC(=O)O)c2nc3ccccc3s2)cc1 the activity score was -6% (inactive). With Cc1ccccc1/C=C(\CCC(=O)O)c1nc2ccccc2s1 the activity score was -6.51% (inactive). With O=C(O)CC/C(=C\c1ccccc1[N+](=O)[O-])c1nc2ccccc2s1 the activity score was -1.5% (inactive). For O=C(Nc1ccc(F)cc1)N1CCN(c2ccccc2)CC1, the activity score was 5.21% (inactive). With COc1ccc(-c2cc(C(F)(F)F)n3nc(C(=O)Nc4cccnc4)cc3n2)cc1 the activity score was -9.52% (inactive). With O=C(Nc1ccccc1)N1CCN(c2ccccc2)CC1 the activity score was -4.99% (inactive). For O=C(Nc1ccc2snnc2c1)N1CCCCC1, the activity score was -5.56% (inactive). In the case of O=C(c1ccc2c(c1)OCO2)N1CCN(c2ccc(F)cc2)CC1, the activity score is reported as -13.9% (inactive). With CC(C)(C)c1ccc(C(=O)N2CCN(c3ccc4c(c3)OCO4)CC2)cc1 the activity score was -3.13% (inactive). In the case of O=C(Nc1cccnc1)c1cnn2c(C(F)F)cc(C3CC3)nc12, the activity score is reported as -3.98% (inactive). With Cc1cccc(/C=C(\CCC(=O)O)c2nc3ccccc3s2)c1 the activity score was 1.92% (inactive). With Cc1cc(C)n2nc(C(=O)Nc3cccnc3)cc2n1 the activity score was 27.1% (inactive). With O=C(Nc1ccc(Cl)cc1)c1cc2nc(C3CC3)cc(C(F)(F)F)n2n1 the activity score was -6.7% (inactive). For O=C(Nc1cccnc1)N1CCN(c2ccccc2)CC1, the activity score was -4.1% (inactive). In the case of COc1ccc(NC(=O)N2CCN(c3ccccc3)CC2)cc1, the activity score is reported as -12.2% (inactive). For CC(=O)c1ccc(N2CCN(C(=O)c3cccnc3)CC2)cc1, the activity score was -8.01% (inactive). In the case of O=C(Nc1ccc2snnc2c1)N1CCN(c2ccccc2)CC1, the activity score is reported as -7.17% (inactive). In the case of COc1ccc(C(=O)N2CCN(c3ccc(C(C)=O)cc3)CC2)cc1, the activity score is reported as 20.7% (inactive). With CC(=O)c1ccc(N2CCN(C(=O)c3cccc(Cl)c3)CC2)cc1 the activity score was -11.7% (inactive). With COC(=O)c1c(C(=O)OC)c(-c2cccc(F)c2)n2c1CS(=O)C2 (centres undefined) the activity score was -8.08% (inactive). In the case of Cc1cc(C)n2nc(C(=O)Nc3cccnc3)nc2n1, the activity score is reported as 11.6% (inactive). In the case of CC(=O)c1ccc(N2CCN(C(=O)c3ccc(C)cc3)CC2)cc1, the activity score is reported as -7.19% (inactive). For Cc1nc2ccc(NC(=O)N3CCN(c4ccccc4)CC3)cc2s1, the activity score was -0.913% (inactive). With O=C(Nc1cccc(Cl)c1)N1CCN(c2ccccc2)CC1 the activity score was 3.11% (inactive). With CC(=O)c1ccc(N2CCN(Cc3ccc4c(c3)OCO4)CC2)cc1 the activity score was -2% (inactive). In the case of Cc1ccc(-c2cc(C(F)(F)F)n3nc(C(=O)Nc4cccnc4)cc3n2)cc1, the activity score is reported as 8.78% (inactive). With CC(=O)c1ccc(N2CCN(C(=O)c3ccc4ncsc4c3)CC2)cc1 the activity score was -4.47% (inactive). For O=C(Nc1ccc2[nH]ccc2c1)N1CCN(c2ccccc2)CC1, the activity score was 29.5% (inactive). For O=C(c1ccc2c(c1)OCO2)N1CCN(Cc2ccccc2)CC1, the activity score was -10.2% (inactive). In the case of COc1cccc(NC(=O)N2CCN(c3ccccc3)CC2)c1, the activity score is reported as 2.06% (inactive). In the case of CCc1ccc(N2CCN(C(=O)c3ccc4c(c3)OCO4)CC2)cc1, the activity score is reported as -0.719% (inactive). For Cc1ccc(NC(=O)N2CCN(c3ccccc3)CC2)cc1, the activity score was 17.2% (inactive). For Cc1ccc(/C=C(\CCCC(=O)O)c2nc3ccccc3s2)cc1[N+](=O)[O-], the activity score was 1.05% (inactive). For Cc1ccc(/C=C(\CCC(=O)O)c2nc3ccccc3s2)cc1[N+](=O)[O-], the activity score was -15.2% (inactive). In the case of O=C(Nc1cccnc1)c1cc2nc(-c3cccs3)cc(C(F)(F)F)n2n1, the activity score is reported as 6.22% (inactive). For Cc1nc2cc(NC(=O)N3CCN(c4ccccc4)CC3)ccc2o1, the activity score was 4.18% (inactive). In the case of CC(=O)c1ccc(N2CCN(C(=O)c3cccc(F)c3)CC2)cc1, the activity score is reported as -6.65% (inactive). In the case of CC(=O)c1ccc(N2CCN(C(=O)c3ccc(Br)cc3)CC2)c(F)c1, the activity score is reported as 7.7% (inactive). In the case of O=C(Nc1ccc(Cl)c(-c2nc3ccccc3[nH]2)c1)c1cccnc1, the activity score is reported as 5.48% (inactive). With CC(=O)c1ccc(N2CCN(C(=O)c3ccc4c(c3)OCCO4)CC2)cc1 the activity score was -1.22% (inactive). For O=C(COc1ccc2ccc(=O)oc2c1)N1CCN(c2ccc(F)cc2)CC1, the activity score was 3.38% (inactive). In the case of Cc1ccc(/C=C(\CC(=O)O)c2nc3ccccc3s2)cc1[N+](=O)[O-], the activity score is reported as -2.58% (inactive). For O=C(Nc1ccncc1)c1cc2nc(C3CC3)cc(C(F)F)n2n1, the activity score was -0.117% (inactive). For COc1ccc(N2CCN(C(=O)c3ccc4c(c3)OCO4)CC2)cc1, the activity score was -1.28% (inactive). With CC(=O)c1ccc(N2CCN(C(=O)c3ccc(Cl)cc3)CC2)cc1 the activity score was 5.46% (inactive).
